Legend:
Assay in all cases: relative viability (nuclei count vs DMSO), 5 days (fraction); higher = more cells survive
[1] = compound: C(C(=O)C(=O)O)Br [Bromopyruvate] + Cc1nc(Nc2ncc(C(=O)Nc3c(C)cccc3Cl)s2)cc(N2CCN(CCO)CC2)n1 [Dasatinib] (partner 0.075 µM)
Summary of the method: (§1)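 Relative viability divides the nuclei count in treated wells by that in vehicle wells. Lung cancer cell lines were seeded in 1536-well plates, dosed by pin tool the next day, and fixed and stained after 5 days in one step with final 0.05% Triton X-100, 1% formaldehyde and 1 ug/ml Hoechst. Dosing was a single drug or a fixed anchor-drug dose plus five library-drug doses (not always all listed) in √10 steps, and values are medians of duplicate plates imaged at 4×.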

[2] = compound: CC(O)(CS(=O)(=O)c1ccc(F)cc1)C(=O)Nc1ccc(C#N)c(C(F)(F)F)c1 [Bicalutamide] + Cc1cc(Nc2cc(N3CCN(C)CC3)nc(Sc3ccc(NC(=O)C4CC4)cc3)n2)n[nH]1 [Tozasertib] (partner 0.1 µM)
Summary of the method: as §1

[3] = compound: CC(O)(CS(=O)(=O)c1ccc(F)cc1)C(=O)Nc1ccc(C#N)c(C(F)(F)F)c1 [Bicalutamide] + CC(C)C[C@H](NC(=O)[C@H](Cc1ccccc1)NC(=O)c1cnccn1)B(O)O [Bortezomib] (partner 0.002 µM)
Summary of the method: as §1

[4] = compound: CC(O)(CS(=O)(=O)c1ccc(F)cc1)C(=O)Nc1ccc(C#N)c(C(F)(F)F)c1 [Bicalutamide] + Nc1nc2[nH]cc(CCc3ccc(C(=O)N[C@@H](CCC(=O)O)C(=O)O)cc3)c2c(=O)[nH]1 [Pemetrexed] (partner 0.2 µM)
Summary of the method: as §1

Cell Line | relative viability ([1]; first compound 1 µM) | relative viability ([1]; first compound 3.162 µM) | relative viability ([1]; first compound 10 µM) | relative viability ([1]; first compound 31.62 µM) | relative viability ([1]; first compound 100 µM) | relative viability ([2]; first compound 0.08 µM) | relative viability ([2]; first compound 0.253 µM) | relative viability ([2]; first compound 0.8 µM) | relative viability ([2]; first compound 2.53 µM) | relative viability ([3]; first compound 0.08 µM) | relative viability ([3]; first compound 0.253 µM) | relative viability ([3]; first compound 0.8 µM) | relative viability ([3]; first compound 2.53 µM) | relative viability ([4]; first compound 0.08 µM) | relative viability ([4]; first compound 0.253 µM) | relative viability ([4]; first compound 0.8 µM) | relative viability ([4]; first compound 2.53 µM)
201T | 0.585 | 0.575 | 0.613 | 0.574 | 0.657 | 1.01 | 0.917 | 0.962 | 0.793 | 1.1 | 1.06 | 1.08 | 1.12 | 0.306 | 0.33 | 0.328 | 0.36
A-427 | 0.733 | 0.688 | 0.685 | 0.669 | 0.685 | 0.232 | 0.183 | 0.209 | 0.165 | 1.04 | 1.12 | 1 | 0.93 | 0.986 | 0.968 | 1.11 | 0.913
ABC-1 | 0.692 | 0.492 | 0.62 | 0.584 | 0.348 | 0.179 | 0.168 | 0.17 | 0.167 | 0.311 | 0.232 | 0.328 | 0.319 | – | – | – | –
BEN | 0.367 | 0.297 | 0.354 | 0.26 | 0.379 | 0.475 | 0.533 | 0.527 | 0.487 | 0.847 | 0.667 | 1.18 | 0.917 | 0.854 | 0.74 | 1.15 | 0.837
CAL-12T | 0.488 | 0.341 | 0.409 | 0.539 | 0.392 | 0.267 | 0.332 | 0.324 | 0.373 | 0.942 | 0.858 | 1.12 | 0.768 | 1.34 | 1.06 | 1.28 | 1.14
COR-L23 | 0.604 | 0.514 | 0.631 | 0.449 | 0.13 | 0.253 | 0.196 | 0.172 | 0.179 | 1.09 | 0.862 | 1.13 | 0.926 | 0.204 | 0.203 | 0.184 | 0.196
COR-L 105 | 0.336 | 0.36 | 0.294 | 0.319 | 0.195 | 0.391 | 0.348 | 0.408 | 0.387 | 0.761 | 0.87 | 0.98 | 0.501 | 1.25 | 1.19 | 1.08 | 1.05
Calu-6 | – | – | – | – | – | – | – | – | – | 1.08 | 0.857 | 1.05 | 0.922 | – | – | – | –
ChaGo-K-1 | 0.59 | 0.607 | 0.604 | 0.586 | 0.589 | 0.219 | 0.238 | 0.212 | 0.292 | 0.973 | 1.05 | 1.17 | 0.864 | 0.256 | 0.252 | 0.251 | 0.247
EBC-1 | – | – | – | – | – | – | – | – | – | 0.584 | 0.537 | 0.592 | 0.477 | – | – | – | –
EKVX | 0.433 | 0.547 | 0.578 | 0.689 | 0.628 | 0.372 | 0.315 | 0.386 | 0.371 | 0.994 | 1.1 | 1.37 | 0.952 | 0.378 | 0.335 | 0.392 | 0.391
EMC-BAC-2 | 0.317 | 0.34 | 0.449 | 0.297 | 0.334 | 0.346 | 0.285 | 0.289 | 0.249 | 1.04 | 0.968 | 1.15 | 0.929 | 0.447 | 0.41 | 0.489 | 0.444
EPLC-272H | 0.354 | 0.309 | 0.462 | 0.374 | 0.455 | 0.238 | 0.224 | 0.25 | 0.237 | 0.873 | 0.666 | 0.904 | 0.894 | 0.424 | 0.322 | 0.359 | 0.207
H3255 | 0.422 | 0.361 | 0.347 | 0.344 | 0.488 | 0.743 | 0.439 | – | 0.604 | 0.798 | 0.632 | 0.783 | 0.698 | 0.584 | 0.536 | 0.62 | 0.571
HARA | 0.216 | 0.297 | 0.241 | 0.282 | 0.362 | 0.128 | 0.099 | 0.103 | 0.182 | 1.15 | 1.02 | 1.14 | 1.22 | 0.233 | – | 0.299 | 0.251
HCC-15 | 0.654 | 0.633 | 0.606 | 0.744 | 0.541 | 0.428 | 0.394 | 0.365 | 0.228 | 1.03 | 0.953 | 1.21 | 0.983 | 0.23 | 0.231 | 0.221 | 0.223
HCC-44 | – | – | – | – | – | 1.06 | 0.874 | 0.746 | 1.12 | 0.936 | 0.953 | 0.961 | 0.989 | 0.675 | 0.707 | 0.637 | 0.688
HCC-78 | 0.342 | 0.409 | 0.381 | 0.274 | 0.305 | 0.43 | 0.351 | 0.472 | 0.347 | 0.498 | 0.504 | 0.479 | 0.556 | 0.947 | 0.708 | 0.962 | 0.939
HCC-366 | 0.614 | 0.672 | 1.01 | 0.643 | 0.585 | 0.133 | 0.0841 | 0.0976 | 0.0526 | 1.04 | 1.02 | 1.43 | 1.04 | 0.16 | 0.189 | 0.191 | 0.163
HCC-827 | 0.249 | 0.366 | 0.329 | 0.326 | 0.317 | 0.403 | 0.341 | 0.402 | 0.402 | 1.12 | 0.964 | 1.04 | 0.98 | 0.261 | 0.218 | 0.289 | 0.306
HOP-62 | 0.643 | 0.68 | 0.791 | 0.609 | 0.709 | 0.419 | 0.402 | 0.425 | 0.34 | 0.683 | 0.527 | 0.725 | 0.92 | 0.371 | 0.289 | 0.277 | 0.327
